These results are taken from patent US9550778B2, “Substituted 6-aryl-imidazopyridine and 6-aryl-triazolopyridine carboxamide analogs as negative allosteric modulators of mGluR5” (Vanderbilt University, priority 2014, dated 2017).

For orientation: IC50 means the concentration at which inhibition is half-maximal.

For one data set, the target named is rat mGluR5 (Rattus norvegicus (Rat), UniProt P31424). Description: Calcium mobilization assay in HEK 293A cells stably expressing rat mGluR5. The class given is cell-based. The conditions noted are these: for IC50: HEK cells transfected with rat mGluR5, inhibition of glutamate EC80 response, ± standard error where average of at least three experiments; for remaining activity at 30 µM: HEK293-A, amplitude of response in the presence of 30 μM test compound as a percentage of maximal response (100 μM glutamate), read-out: % Glu Max. As to the method:
The cells were grown overnight at 37° C. in the presence of 5% CO2. […] Dye was removed, 20 μL of assay buffer was added, and the plate was incubated for 5 minutes at room temperature.
Ca^2+ flux was measured using the Functional Drug Screening System (FDSS7000, Hamamatsu, Japan). After establishment of a fluorescence baseline for about 3 seconds, the compounds of the present invention were added to the cells, and the response in cells was measured. 2.3 minutes later an EC20 concentration of the mGluR5 receptor agonist glutamate was added to the cells, and the response of the cells was measured for 1.9 minutes; an EC80 concentration of agonist was added and readings taken for an additional 1.7 minutes. All test compounds were dissolved and diluted to a concentration of 10 mM in 100% DMSO. Compounds were then serially diluted 1:3 in DMSO into 10 point concentration response curves, transferred to daughter plates, and further diluted into assay buffer to a 2× stock. Calcium fluorescence measures were recorded as fold over basal fluorescence; raw data was then normalized to the maximal response to glutamate.
The raw data file containing all time points was used as the data source in the analysis template. This was saved by the FDSS as a tab-delimited text file. Data were normalized using a static ratio function (F/F0) for each measurement of the total 360 values per well divided by each well's initial value. Data were then reduced to peak amplitudes (Max−Initial Min) using a time range that starts approximately 3 seconds prior to the glutamate EC20/EC80 addition and continues for approximately 90-120 seconds. This is sufficient time to capture the peak amplitude of the cellular calcium response. Individual amplitudes were expressed as % EMax by multiplying each amplitude by 100 and then dividing the product by the mean of the amplitudes derived from the glutamate ECMax-treated wells. IC50 values for test compounds were generated by fitting the normalized values versus the log of the test compound concentration (in mol/L) using a 4 parameter logistic equation where none of the parameters were fixed. Each of the three values collected at each concentration of test compound were weighted evenly.
The mGluR5 activity was determined using the calcium mobilization assays in human embryonic kidney cells as described herein below, wherein the human embryonic kidney cells were transfected with rat mGluR5. The mGluR5 activity data for some compounds are shown as the average of at least three experiments with the standard error in these cases. If no error is indicated for the mGluR5 activity, the values given represent the results from a single experiment or the average of two experiments. The compounds in Table 1 were synthesized with methods identical or analogous to those shown herein. The requisite starting materials were commercially available, described in the literature, or readily synthesized by one skilled in the art of organic synthesis.
GluMax is the amplitude of response in the presence of 30 μM test compound as a percentage of maximal response (100 μM glutamate). Partial antagonists display concentration-response curves (CRCs) that plateau above 10%.

Data set [1] relates to N-methyl-D-aspartate (NMDA) receptor. The conditions noted are these: at higher concentrations; cited from earlier work.
In the next data set the target is mGluR4 (Homo sapiens (Human), UniProt Q14833). As to conditions: cited from earlier work.
The target of the next data set is cytochrome P450 1A2 (Homo sapiens (Human), UniProt P05177). The conditions noted are these: cited from earlier work.
The conditions of data set [2]: intravenous administration, rhesus monkeys; cited from earlier work.

Sequence of rat mGluR5 (P31424 21-1203): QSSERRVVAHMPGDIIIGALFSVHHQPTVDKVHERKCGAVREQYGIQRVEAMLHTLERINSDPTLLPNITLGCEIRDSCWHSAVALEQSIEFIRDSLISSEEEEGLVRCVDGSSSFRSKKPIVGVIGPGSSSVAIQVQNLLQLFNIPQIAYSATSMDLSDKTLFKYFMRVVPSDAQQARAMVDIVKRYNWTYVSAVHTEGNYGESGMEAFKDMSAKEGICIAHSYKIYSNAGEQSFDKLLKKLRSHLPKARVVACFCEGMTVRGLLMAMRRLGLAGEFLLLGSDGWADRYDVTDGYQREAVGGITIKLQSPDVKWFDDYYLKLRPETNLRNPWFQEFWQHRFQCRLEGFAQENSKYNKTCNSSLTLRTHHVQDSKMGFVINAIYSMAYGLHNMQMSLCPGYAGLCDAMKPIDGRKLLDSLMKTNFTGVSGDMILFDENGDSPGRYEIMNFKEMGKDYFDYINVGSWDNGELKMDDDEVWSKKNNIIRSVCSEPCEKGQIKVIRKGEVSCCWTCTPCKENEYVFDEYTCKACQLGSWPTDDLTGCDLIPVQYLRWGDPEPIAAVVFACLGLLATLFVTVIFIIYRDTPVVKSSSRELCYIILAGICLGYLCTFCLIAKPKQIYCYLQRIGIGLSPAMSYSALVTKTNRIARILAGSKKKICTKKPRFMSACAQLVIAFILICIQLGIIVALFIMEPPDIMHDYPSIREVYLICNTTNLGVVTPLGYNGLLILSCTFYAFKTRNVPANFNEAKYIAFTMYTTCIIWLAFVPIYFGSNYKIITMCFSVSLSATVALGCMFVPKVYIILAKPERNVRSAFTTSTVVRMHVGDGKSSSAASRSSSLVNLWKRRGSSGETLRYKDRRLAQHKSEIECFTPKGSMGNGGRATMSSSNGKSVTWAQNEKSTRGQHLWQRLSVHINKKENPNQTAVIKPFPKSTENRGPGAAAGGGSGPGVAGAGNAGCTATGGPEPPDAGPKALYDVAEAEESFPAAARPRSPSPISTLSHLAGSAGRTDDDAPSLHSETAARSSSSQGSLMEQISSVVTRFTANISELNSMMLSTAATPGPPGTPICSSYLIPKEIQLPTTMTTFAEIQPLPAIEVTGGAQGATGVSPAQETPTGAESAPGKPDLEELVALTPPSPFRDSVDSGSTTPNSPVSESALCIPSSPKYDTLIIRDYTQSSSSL
Sequence of cytochrome P450 1A2 (P05177 whole entry, species assumed): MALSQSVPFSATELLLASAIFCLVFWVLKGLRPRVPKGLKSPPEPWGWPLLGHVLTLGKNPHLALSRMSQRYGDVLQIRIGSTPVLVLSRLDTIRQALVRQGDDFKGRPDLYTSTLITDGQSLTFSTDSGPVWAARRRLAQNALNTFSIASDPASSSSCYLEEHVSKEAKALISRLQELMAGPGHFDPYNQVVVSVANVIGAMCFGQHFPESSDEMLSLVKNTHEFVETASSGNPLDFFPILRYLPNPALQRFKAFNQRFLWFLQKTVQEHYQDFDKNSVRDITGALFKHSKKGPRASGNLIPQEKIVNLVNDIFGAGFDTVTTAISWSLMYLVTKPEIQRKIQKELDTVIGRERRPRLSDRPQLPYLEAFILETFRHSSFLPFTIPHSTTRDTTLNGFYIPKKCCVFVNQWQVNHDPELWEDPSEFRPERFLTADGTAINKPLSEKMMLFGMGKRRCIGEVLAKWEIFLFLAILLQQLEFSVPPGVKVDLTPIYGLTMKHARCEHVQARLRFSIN
Sequence of mGluR4 (Q14833 33-912): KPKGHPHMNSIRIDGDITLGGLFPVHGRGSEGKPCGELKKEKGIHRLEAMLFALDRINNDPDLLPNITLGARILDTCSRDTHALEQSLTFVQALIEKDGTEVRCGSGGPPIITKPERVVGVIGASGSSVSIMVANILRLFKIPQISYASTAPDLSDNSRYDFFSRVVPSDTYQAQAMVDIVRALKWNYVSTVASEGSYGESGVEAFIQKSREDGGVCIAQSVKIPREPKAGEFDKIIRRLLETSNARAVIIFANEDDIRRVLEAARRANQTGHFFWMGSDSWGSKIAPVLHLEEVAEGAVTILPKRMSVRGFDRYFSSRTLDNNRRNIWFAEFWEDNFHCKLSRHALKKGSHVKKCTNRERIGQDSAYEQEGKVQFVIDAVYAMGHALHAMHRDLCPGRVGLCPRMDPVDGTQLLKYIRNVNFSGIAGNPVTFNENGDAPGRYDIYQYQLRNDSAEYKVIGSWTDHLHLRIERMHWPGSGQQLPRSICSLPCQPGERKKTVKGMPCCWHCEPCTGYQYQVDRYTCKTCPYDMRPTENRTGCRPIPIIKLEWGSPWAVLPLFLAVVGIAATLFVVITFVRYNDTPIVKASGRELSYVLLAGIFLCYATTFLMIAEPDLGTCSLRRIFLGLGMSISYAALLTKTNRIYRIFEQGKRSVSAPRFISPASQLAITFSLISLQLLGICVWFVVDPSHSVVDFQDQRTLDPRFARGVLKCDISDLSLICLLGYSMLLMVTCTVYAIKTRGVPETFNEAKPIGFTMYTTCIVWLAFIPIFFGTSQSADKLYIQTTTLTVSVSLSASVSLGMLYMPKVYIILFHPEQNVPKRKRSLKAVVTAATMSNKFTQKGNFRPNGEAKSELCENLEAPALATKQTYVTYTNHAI

For `CCc1cccc(NC(=O)c2cc(-c3cnccc3C)cn3ncnc23)n1`, on rat mGluR5, the concentration for half-maximal inhibition (IC50) was found to be 1760 nM.

As to `Cc1ccc(NC(=O)c2cc(-c3cnccc3C)cn3ncnc23)nc1`, at rat mGluR5, the concentration for half-maximal inhibition (IC50) was 325 nM.

Turning to `Cc1ccncc1-c1cc(C(=O)Nc2ccc(F)cn2)c2ncnn2c1`, at rat mGluR5, the remaining activity at 30 µM was 52% and the IC50 is more than 10000 nM.

As for `Cc1ccncc1-c1cc(C(=O)Nc2ccccn2)c2ncnn2c1`, the IC50 on rat mGluR5 came to 358 nM.

On to `COc1ccc(NC(=O)c2cc(-c3cnccc3C)cn3ncnc23)nc1`, for which the IC50 on rat mGluR5 stood at 1310 nM.

Regarding `Cc1cccc(NC(=O)c2cc(-c3cnccc3C)cn3ncnc23)n1`, on rat mGluR5, the concentration for half-maximal inhibition (IC50) came out at 793 nM.

Regarding `COc1cccc(NC(=O)c2cc(-c3cnccc3C)cn3ncnc23)n1`, on rat mGluR5, the remaining activity at 30 µM worked out at 31% and the IC50 is more than 10000 nM.

In the case of `Cc1csc(NC(=O)c2cc(-c3cnccc3C)cn3ncnc23)n1`, the IC50 at rat mGluR5 was 170 nM.

For the molecule `Cc1csc(NC(=O)c2cc(-c3ccccc3)cn3ncnc23)n1`, the half-inhibitory concentration (IC50) on rat mGluR5 is 385 nM.

Consider `Cc1csc(NC(=O)c2cc(-c3ccc4ncccc4c3)cn3ncnc23)n1`, for which, on rat mGluR5, the remaining activity at 30 µM is 74% and the IC50 was more than 10000 nM.

In the case of `Cc1csc(NC(=O)c2cc(-c3cccnc3)cn3ncnc23)n1`, the IC50 on rat mGluR5 came to 587 nM.

As for `Cc1csc(NC(=O)c2cc(-c3cc(C)nn3C)cn3ncnc23)n1`, at rat mGluR5, the IC50 is 690 nM.

Regarding `Cc1cccc(-c2cc(C(=O)Nc3nc(C)cs3)c3ncnn3c2)c1`, the IC50 on rat mGluR5 came to 4770 nM.

For `Cc1csc(NC(=O)c2cc(-c3ccc4occc4c3)cn3ncnc23)n1`, the IC50 at rat mGluR5 was more than 30000 nM.

`Cc1csc(NC(=O)c2cc(-c3cnc(F)c(C)c3)cn3ncnc23)n1`: on rat mGluR5, the IC50 stood at 2810 nM.

As to `Cc1csc(NC(=O)c2cc(-c3cccc4c3cnn4C)cn3ncnc23)n1`, at rat mGluR5, the IC50 stood at 7020 nM.

Take `Cc1cc(-c2cc(C(=O)Nc3nc(C)cs3)c3ncnn3c2)ccn1`: on rat mGluR5, the IC50 was found to be 10000 nM.

Take `COc1cnc(-c2cc(C(=O)Nc3nc(C)cs3)c3ncnn3c2)cn1`: on rat mGluR5, the remaining activity at 30 µM came out at 71% and the half-maximal inhibitory concentration (IC50) was more than 10000 nM.

Consider `Cc1csc(NC(=O)c2cc(-c3cn(C)nc3C)cn3ncnc23)n1`, for which the IC50 at rat mGluR5 turned out to be 2160 nM.

Consider `Cc1csc(NC(=O)c2cc(-c3ccc(F)nc3)cn3ncnc23)n1`, for which the IC50 on rat mGluR5 turned out to be 4930 nM.

As to `Cc1csc(NC(=O)c2cc(-c3cccnc3F)cn3ncnc23)n1`, the IC50 on rat mGluR5 came out at 978 nM.

For `Cc1csc(NC(=O)c2cc(-c3ccc4c(ccn4C)c3)cn3ncnc23)n1`, at rat mGluR5, the remaining activity at 30 µM came out at 27% and the IC50 was more than 10000 nM.

In the case of `Cc1csc(NC(=O)c2cc(-c3ccc4c(cnn4C)c3)cn3ncnc23)n1`, on rat mGluR5, the remaining activity at 30 µM turned out to be 53% and the IC50 is more than 10000 nM.

For the molecule `Cc1csc(NC(=O)c2cc(-c3cc4ccccc4o3)cn3ncnc23)n1`, at rat mGluR5, the remaining activity at 30 µM came out at 39% and the IC50 was more than 10000 nM.

On to `Cc1csc(NC(=O)c2cc(-c3cccc4cnn(C)c34)cn3ncnc23)n1`, for which, at rat mGluR5, the IC50 was found to be 10200 nM.

For the molecule `Cc1csc(NC(=O)c2cc(-c3ccc4cnn(C)c4c3)cn3ncnc23)n1`, on rat mGluR5, the remaining activity at 30 µM stood at 30% and the IC50 is more than 10000 nM.

For the molecule `Cc1cncc(-c2cc(C(=O)Nc3nc(C)cs3)c3ncnn3c2)c1`, the IC50 on rat mGluR5 amounted to 1500 nM.

Take `Cc1cc(C)cc(-c2cc(C(=O)Nc3nc(C)cs3)c3ncnn3c2)c1`: on rat mGluR5, the remaining activity at 30 µM was found to be 57% and the IC50 was more than 10000 nM.

On to `Cc1csc(NC(=O)c2cc(-c3ccccc3C)cn3ncnc23)n1`, for which the IC50 at rat mGluR5 was 7940 nM.

Turning to `COc1ccc(C)c(-c2cc(C(=O)Nc3nc(C)cs3)c3ncnn3c2)c1`, the IC50 at rat mGluR5 amounted to 7100 nM.

Take `Cc1csc(NC(=O)c2cc(-c3cnccc3C3CC3)cn3ncnc23)n1`: the IC50 at rat mGluR5 is 1010 nM.

Consider `CCc1ccncc1-c1cc(C(=O)Nc2nc(C)cs2)c2ncnn2c1`, for which the IC50 at rat mGluR5 came out at 984 nM.

Take `Cc1csc(NC(=O)c2cc(-c3cccc(F)c3)cn3ncnc23)n1`: the concentration for half-maximal inhibition (IC50) at rat mGluR5 worked out at 788 nM.

Take `Cc1csc(NC(=O)c2cc(-c3cnn(C)c3)cn3ncnc23)n1`: on rat mGluR5, the remaining activity at 30 µM is 30% and the IC50 is more than 10000 nM.

Turning to `Cc1csc(NC(=O)c2cc(-c3ccnn3C)cn3ncnc23)n1`, on rat mGluR5, the IC50 was found to be 378 ± 17 nM.

Regarding `CCn1nccc1-c1cc(C(=O)Nc2nc(C)cs2)c2ncnn2c1`, the IC50 on rat mGluR5 amounted to 3920 nM.

Regarding `Cc1csc(NC(=O)c2cc(-c3cncnc3)cn3ncnc23)n1`, the IC50 on rat mGluR5 was determined as 758 ± 280 nM.

Take `Cc1cc(-c2cc(C(=O)Nc3nc(C)cs3)c3ncnn3c2)[nH]n1`: the IC50 on rat mGluR5 is 60 ± 8 nM.

For `Cc1csc(NC(=O)c2cc(-c3ccncc3)cn3ncnc23)n1`, at rat mGluR5, the IC50 is 8070 nM.

Regarding `Cc1csc(NC(=O)c2cc(-c3ccnnc3)cn3ncnc23)n1`, at rat mGluR5, the remaining activity at 30 µM is 27% and the IC50 was more than 10000 nM.

Turning to `Cc1csc(NC(=O)c2cc(-c3cnncc3C)cn3ncnc23)n1`, the IC50 at rat mGluR5 was 2910 nM.

On to `Cc1csc(NC(=O)c2cc(-c3ccn(C)n3)cn3ncnc23)n1`, for which, at rat mGluR5, the remaining activity at 30 µM was 70% and the IC50 was more than 10000 nM.

With `Cc1cc(-c2cc(C(=O)Nc3ccccn3)c3nccn3c2)[nH]n1`, at rat mGluR5, the IC50 turned out to be 1140 nM.

Turning to `Cc1cc(-c2cc(C(=O)Nc3nc(C)cs3)c3nccn3c2)[nH]n1`, the IC50 on rat mGluR5 was 1410 nM.

Turning to `Cc1ccc(NC(=O)c2cc(-c3cc(C)n[nH]3)cn3ccnc23)nc1`, the IC50 at rat mGluR5 was 5110 nM.

For the molecule `Cc1cc(-c2cc(C(=O)Nc3ccc(F)cn3)c3nccn3c2)[nH]n1`, the IC50 on rat mGluR5 was determined as 3930 nM.

On to `Cc1cc(-c2cc(C(=O)Nc3ccc(F)cn3)c3ncnn3c2)n(C)n1`, for which, on rat mGluR5, the IC50 was 2130 nM.

`Cc1cc(-c2cc(C(=O)Nc3cccc(F)n3)c3ncnn3c2)n(C)n1`: the IC50 at rat mGluR5 came to 835 nM.

Take `Cn1nccc1-c1cc(C(=O)Nc2ccc(F)cn2)c2nncn2c1`: the IC50 on rat mGluR5 turned out to be 1450 nM.

Regarding `Cc1cc(-c2cc(C(=O)Nc3ccc(F)cn3)c3ncnn3c2)[nH]n1`, at rat mGluR5, the IC50 is more than 30000 nM.

Turning to `Cc1cccc(C#Cc2ccccc2)n1` [MPEP, 2-methyl-6-(phenylethynyl)pyridine], in data set [1], the “inhibition of NMDA receptor activity” value is “directly inhibit”. Also, the “activity at mGluR4” value on mGluR4 is given as “positive allosteric modulator”.

Turning to `Cc1nc(C#Cc2cccnc2)cs1` [MTEP, 3-[(2-methyl-1,3-thiazol-4-yl)ethynyl]pyridine], the “inhibition of cytochrome P450 1A2” value on cytochrome P450 1A2 is listed as “potent inhibitor”. Besides, the clearance result in data set [2] is recorded as “efficiently cleared”.
